Data from publication PMC8879107, “A3 Adenosine Receptor Antagonists with Nucleoside Structures and Their Anticancer Activity” (Pharmaceuticals, 2022).
“Also recorded” adds a separate entry of the source. Read-outs that look alike come from different tables or passages of the source.

Experiments:
[1] = test system: PC3 prostate cancer cell line; assay: Sulforhodamine B (SRB) cell growth inhibition assay; conditions: for GI50 / IC100 / CC50: Homo sapiens, 48 h; for IC100: read-out: TGI (μM); for TGI: PC3, 48 h, concentration to inhibit 100% of cell growth, mean ± SD; for CC50: read-out: LC50 (μM)
[2] = test system: human prostate (PC3), colon (Caco-2) and hepatocyte (Hep G2) carcinomas; set-up: method as in PMID 29763615; conditions: all three tumor cell lines PC3, Caco-2, Hep G2; cited from earlier work
[3] = test system: hepatocellular carcinoma and moderate hepatic dysfunction; set-up: method as in PMID 33430312; conditions: cited from earlier work
human recombinant A1AR [4] = target: T1, human recombinant A1AR (Homo sapiens, UniProt P30542); conditions: [3H]CCPA, CHO membranes; read-out: hA1R (Ki nM); cited from earlier work
T1 sequence (P30542 1-326): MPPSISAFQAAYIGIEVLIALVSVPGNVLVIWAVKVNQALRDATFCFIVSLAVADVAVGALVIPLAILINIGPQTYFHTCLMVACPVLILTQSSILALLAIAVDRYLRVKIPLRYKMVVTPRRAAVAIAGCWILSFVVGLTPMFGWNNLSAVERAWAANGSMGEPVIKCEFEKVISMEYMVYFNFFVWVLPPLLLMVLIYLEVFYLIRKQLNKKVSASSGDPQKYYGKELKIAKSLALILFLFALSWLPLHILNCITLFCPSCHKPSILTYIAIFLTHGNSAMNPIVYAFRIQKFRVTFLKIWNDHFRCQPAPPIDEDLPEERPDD

human recombinant A2AAR [5] = target: T2, human recombinant A2AAR (Homo sapiens, UniProt P29274); conditions: [3H]NECA, CHO membranes; read-out: hA2AR (Ki nM); cited from earlier work
human A3AR [6] = target: T3, human A3AR (Homo sapiens, UniProt P0DMS8); conditions: cited from earlier work
T3 sequence (P0DMS8 1-318): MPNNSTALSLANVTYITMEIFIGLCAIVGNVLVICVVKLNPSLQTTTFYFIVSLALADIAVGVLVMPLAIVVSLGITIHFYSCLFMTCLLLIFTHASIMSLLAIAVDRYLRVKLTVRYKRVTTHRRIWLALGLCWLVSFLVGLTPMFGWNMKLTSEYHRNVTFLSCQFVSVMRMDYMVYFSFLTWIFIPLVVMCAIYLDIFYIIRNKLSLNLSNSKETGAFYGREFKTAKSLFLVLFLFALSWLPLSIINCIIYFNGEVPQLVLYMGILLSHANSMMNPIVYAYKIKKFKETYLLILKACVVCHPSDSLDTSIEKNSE

human A3AR [7] = target: T3, human A3AR; assay: GloSensor cAMP accumulation assay (agonism/antagonism) at A3AR in CHO cells; format: cell-based; set-up: expressed in transfected cells; host or cells: CHO cells stably expressing A3AR and the GloSensor biosensor plasmid; conditions: for IC50: antagonism: counteracting agonist (NECA 1 μM) induced decrease of cAMP, forskolin 10 μM, mean ± S.E.; for functional behaviour at A3AR (agonist/antagonist): forskolin 10 µM stimulated cAMP, compared to Cl-IB-MECA
Method: CHO cells stable expressing A2B or A3ARs and the plasmid encoding the biosensor were used to study functional agonism and antagonism of understudy ligands. The desired cell number was incubated in equilibration medium containing a 3% v/v GloSensor cAMP reagent stock solution, 10% FBS and 87% of CO2 independent media. After 2 h of incubation, cells were dispensed in wells of 384 well plate and when a steady-state basal signal was obtained the agonism profile was studied, adding to wells the reference agonist NECA or compounds at different concentrations. In the case of the Gi coupled receptor A3AR Forskolin (FSK) 10 μM was added 10 min after the agonists and various luminescence readings were performed at different incubation times.
The antagonist profile of the compounds was evaluated by assessing their ability to counteract an agonist-induced increase or decrease (A2B and A3ARs, respectively) of cAMP accumulation. The cells were incubated with different antagonist concentrations and then treated with a fixed dose of NECA (10 μM for A2BAR and 1 μM for A3AR). FSK 10 μM was added 10 min after the agonists and various luminescence reads were performed at different incubation times.
Responses were expressed as percentage of the maximal relative luminescence units (RLU) and concentration–response curves were fitted by a nonlinear regression with the Prism program (GraphPAD Software, San Diego, CA, USA). The agonist or antagonist profile of compounds was expressed as EC50 or IC50, respectively. Each concentration was tested three–five times in duplicate and the values are given as the mean ± S.E.

human A3AR [8] = target: T3, human A3AR; assay: Radioligand binding assay, displacement of [3H]HEMADO in CHO cell membranes; conditions: for A1/A3: A3AR selectivity vs A1AR; for A1/A3 / A2A/A3: ratio of Ki values; for A2A/A3: A3AR selectivity vs A2AAR; for Ki: [3H]HEMADO, CHO membranes, mean ± S.E., n = 3-5, read-out: hA3R (Ki nM)
Method: In the case of A2BAR, the potency of selected compounds was determined through a functional GloSensor cAMP assay.
(§1) All pharmacological methods followed the procedures as described earlier. In brief, membranes for radioligand binding were prepared from CHO cells stably transfected with human adenosine receptor subtypes through two centrifugations at different speeds. The first low-speed (1000 g) centrifugation allowed the removing of cell fragments and nuclei, while the second, performed at high speed (100,000 g), allowed the precipitation of the crude membrane fractions.
(§2) The binding affinity of the novel compounds was evaluated using radioligand competition experiments in CHO cells stably expressing hA1AR, hA2AAR, and hA3AR subtypes. […] Results were expressed as Ki values (dissociation constants), which were calculated with the program GraphPad (GraphPAD Software, San Diego, CA, USA). Each concentration was tested three–five times in duplicate and the values are given as the mean ± standard error (S.E.).

human recombinant A1AR [9] = target: T1, human recombinant A1AR; assay: Radioligand binding assay, displacement of [3H]CCPA in CHO cell membranes; conditions: mean ± S.E., n = 3-5, read-out: hA1R (Ki nM)
Method: (§3) [^3H]CCPA (2-chloro-N^6-cyclopentylAdo), [^3H]NECA (5′-N-ethylcarboxamidoAdo), and [^3H]HEMADO (2-hexynyl-N^6-methylAdo) were used as respective radioligands. The results are reported as Ki values in nM (± standard errors) (Table 1). In the case of A2BAR, the potency of selected compounds was determined through a functional GloSensor cAMP assay.
as §1, §2

human recombinant A2AAR [10] = target: T2, human recombinant A2AAR; assay: Radioligand binding assay, displacement of [3H]NECA in CHO cell membranes; conditions: mean ± S.E., n = 3-5, read-out: hA2AR (Ki nM)
Method: as §3, §1, §2

[11] = A3AR affinity repeated in Table 2, read-out: A3AR
[12] = [3H]HEMADO, CHO membranes, read-out: hA3R (Ki nM)

T2 sequence (P29274 whole entry): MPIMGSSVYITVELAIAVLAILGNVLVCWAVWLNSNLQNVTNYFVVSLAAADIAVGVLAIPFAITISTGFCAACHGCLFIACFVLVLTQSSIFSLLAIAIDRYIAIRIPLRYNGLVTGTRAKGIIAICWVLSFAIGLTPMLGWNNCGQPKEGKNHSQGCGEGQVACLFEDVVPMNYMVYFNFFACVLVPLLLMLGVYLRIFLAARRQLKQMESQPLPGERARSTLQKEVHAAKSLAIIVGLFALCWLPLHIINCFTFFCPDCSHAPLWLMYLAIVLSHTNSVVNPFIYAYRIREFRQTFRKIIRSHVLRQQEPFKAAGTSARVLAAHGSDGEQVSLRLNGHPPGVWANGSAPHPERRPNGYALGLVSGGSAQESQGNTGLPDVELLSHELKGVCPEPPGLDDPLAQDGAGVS

SMILES	GI50 [1] [µM]	IC100 [1] [µM]	TGI [1] [µM]	anticancer effect (cell growth inhibition) [2]	primary end-point of phase II trial [3]	safety profile in phase II trial [3]	Ki (human recombinant A1AR [4]) [nM]	Ki (human recombinant A2AAR [5]) [nM]	CC50 [1] [µM]	Ki (human A3AR [6]; [11]) [nM]	Ki (human A3AR [6]; [12]) [nM]	IC50 (human A3AR [7]) [nM]	functional behaviour at A3AR (agonist/antagonist) (human A3AR [7])	A1/A3 (human A3AR [8]) [fold]	A2A/A3 (human A3AR [8])	Ki (human recombinant A1AR [9]) [nM]	Ki (human recombinant A2AAR [10]) [nM]	Ki (human A3AR [8]) [nM]	cytotoxic activity ([1]; PC3, at concentrations up to 500 µM)	EC50 (human A3AR [7]) [nM]
CNC(=O)[C@H]1O[C@@H](n2cnc3c(NCc4cccc(I)c4)nc(Cl)nc32)[C@H](O)[C@@H]1O [Cl-IB-MECA, 2-chloro-N^6-(3-iodobenzyl)adenosine-5′-N-methyluronamide, reference compound]	18 ± 0.4	44	44 ± 3.3	good anticancer effect	did not meet its primary end-point	favorable safety profile	–	–	–	–	–	–	–	–	–	–	–	–	–	–
CCCCC#Cc1nc(NCC(c2ccccc2)c2ccccc2)c2ncn([C@@H]3O[C@H](CO)[C@@H](O)[C@H]3O)c2n1 [Compound 4, 2-Hexynyl-N^6-(2,2-diphenylethyl)adenosine]	16 ± 0.5	35	35 ± 1.5	very good antitumor activity	–	–	984	153	80 ± 9.8	27	27	380 ± 80	antagonists	36	6 fold	–	–	–	–	–
OC[C@H]1O[C@@H](n2cnc3c(NCCc4ccccc4)nc(NCCc4ccccc4)nc32)[C@H](O)[C@@H]1O [Compound 5, 2-Phenylethylamino-N^6-(2-phenylethyl)adenosine]	237 ± 9.4	> 500	>500	very good antitumor activity	–	–	357	1370	> 500	0.33	0.33	–	–	1082	4145 fold	–	–	–	–	–
OC[C@H]1O[C@@H](n2cnc3c(NCCc4ccccc4)nc(I)nc32)[C@H](O)[C@@H]1O [Compound 8, 2-Iodo-N^6-(2-phenylethyl)adenosine]	42 ± 2.7	113	113 ± 6.7	–	–	–	–	–	301 ± 13.4	–	–	–	–	29	824 fold	144 ± 32	4120 ± 998	5 ± 1.2	–	–
OC[C@H]1O[C@@H](n2cnc3c(NCC(c4ccccc4)c4ccccc4)nc(I)nc32)[C@H](O)[C@@H]1O [Compound 9, 2-Iodo-N^6-(2,2-diphenylethyl)adenosine]	24 ± 1.2	48	48 ± 3.5	–	–	–	–	–	94 ± 3.5	–	–	–	–	17	113 fold	182 ± 25.4	1240 ± 253	11 ± 1.8	–	–
CCCCC#Cc1nc(NCCc2ccccc2)c2ncn([C@@H]3O[C@H](CO)[C@@H](O)[C@H]3O)c2n1 [Compound 10, 2-Hexynyl-N^6-(2-phenylethyl)adenosine]	13 ± 1.6	77	77 ± 2.9	–	–	–	–	–	452 ± 10.5	–	–	31 ± 6	antagonists	86	97 fold	129 ± 8.2	146 ± 48	1.5 ± 0.3	–	–
OC[C@H]1O[C@@H](n2cnc3c(NCCc4ccccc4)nc(C#Cc4ccccc4)nc32)[C@H](O)[C@@H]1O [Compound 11, 2-Phenylethynyl-N^6-(2-phenethyl)adenosine]	2.5 ± 0.8	19	19 ± 6.1	–	–	–	–	–	151 ± 8.9	–	–	79 ± 15	antagonists	213	785 fold	809 ± 117	2980 ± 271	3.8 ± 0.6	–	–
OC[C@H]1O[C@@H](n2cnc3c(NCC(c4ccccc4)c4ccccc4)nc(C#Cc4ccccc4)nc32)[C@H](O)[C@@H]1O [Compound 12, N^6-(2,2-Diphenylethyl)-2-phenylethynyladenosine]	14 ± 0.9	29	29 ± 4.9	–	–	–	–	–	59 ± 10.1	–	–	153 ± 12	antagonists	2	4 fold	211 ± 53	450 ± 84	106 ± 25	–	–
OC[C@H]1O[C@@H](n2cnc3c(NCCc4ccccc4)nc(SCCc4ccccc4)nc32)[C@H](O)[C@@H]1O [Compound 13, N^6-(2-Phenylethyl)-2-phenylethylthioadenosine]	41 ± 4.2	> 500	>500	–	–	–	–	–	> 500	–	–	–	–	9	112 fold	263 ± 19	3360 ± 752	30 ± 7.1	–	–
OC[C@H]1O[C@@H](n2cnc3c(NCCc4ccccc4)nc(Cl)nc32)[C@H](O)[C@@H]1O [Compound 15, 2-Chloro-N^6-(2-phenylethyl)adenosine]	51 ± 5.2	262	262 ± 8.3	–	–	–	–	–	> 500	–	–	–	full A3AR agonist; also recorded: A3AR full agonists	68	27,500 fold	1.64 ± 0.37	660 ± 129	0.024 ± 0.005	no cytotoxic activity	14 ± 3.4
OC[C@H]1O[C@@H](n2cnc3c(NCC(c4ccccc4)c4ccccc4)nc(Cl)nc32)[C@H](O)[C@@H]1O [Compound 16, 2-Chloro-N^6-(2,2-diphenylethyl)-adenosine]	35 ± 3.1	94	94 ± 4.1	–	–	–	–	–	253 ± 11.5	–	–	–	–	6	2046 fold	0.76 ± 0.2	266 ± 35	0.13 ± 0.01	–	–
